Measurements published in patent US8828992B2, “Substituted azole derivatives, pharmaceutical composition containing the derivatives, and method for treating Parkinson's disease using the same” (priority 2009, dated 2014).

biological target: T1, Monoamineoxidase B type human-derived enzyme (Homo sapiens, UniProt P27338); assay: Inhibitory effects on the activity of MAO-B (Amplex Red fluorescence, benzylamine substrate); assay type: biochemical; conditions: read-out: Inhibitory effects (%) on the activity of MAO-B
T1 sequence (P27338 1-520): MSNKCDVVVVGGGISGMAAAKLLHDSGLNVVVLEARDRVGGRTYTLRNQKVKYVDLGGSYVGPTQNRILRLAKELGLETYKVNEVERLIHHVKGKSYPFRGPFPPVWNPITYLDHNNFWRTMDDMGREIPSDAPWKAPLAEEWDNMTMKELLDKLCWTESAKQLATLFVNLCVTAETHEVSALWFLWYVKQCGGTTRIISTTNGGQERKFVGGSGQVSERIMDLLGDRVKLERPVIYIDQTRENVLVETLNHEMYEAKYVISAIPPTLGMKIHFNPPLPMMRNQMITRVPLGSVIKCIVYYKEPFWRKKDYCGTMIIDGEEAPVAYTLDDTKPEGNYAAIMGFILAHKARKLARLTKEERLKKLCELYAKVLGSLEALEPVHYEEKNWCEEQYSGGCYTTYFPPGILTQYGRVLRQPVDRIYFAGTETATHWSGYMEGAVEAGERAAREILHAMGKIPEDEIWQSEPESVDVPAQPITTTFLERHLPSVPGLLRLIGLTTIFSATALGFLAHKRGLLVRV
Protocol: Monoamineoxidase A or B type human-derived enzyme (5 mg/ml) was each diluted with 0.05 M sodium phosphate buffer (pH 7.4) to yield a dilution of 1:200, and then 100 μl of an enzyme buffer containing 2 μl of a compound 1 solution at the corresponding concentration was placed in a test plate (flat-bottom) and incubated for 30 minutes.
100 μl of a working buffer containing 400 μM of Amplex Red reagent, 2 U/ml horseradish peroxidase, and 2 mM substrate (tyramine for MAO-A and benzylamine for MAO-B) in 0.05 M sodium phosphate buffer (pH 7.4) was mixed with a pre-incubated enzyme buffer at 1:1 and measured using fluorescence (EX: 563 nm & EM: 587 nm) for 30 minutes.

Compound | inhibition at 0.01 µM [%]
NC(=O)OCc1cc(-c2ccc(OCC3CCCC3)cc2)no1 [Example 193, Carbamic acid 3-(4-cyclopentylmethoxy-phenyl)-isoxazol-5-ylmethyl ester] | 88.1

same assay, conditions: treatment concentration 10 nM; read-out: Inhibitory effects (%) on the activity of MAO-B

Compound | inhibition at 0.01 µM [%]
NC(=O)OCc1cc(-c2ccc(NCc3cc(Cl)cc(Cl)c3)cc2)no1 [Example 93, carbamic acid 3-[4-(3,5-dichloro-benzylamino)-phenyl]-isoxazol-5-ylmethyl ester] | 24.1
NC(=O)OCc1cc(-c2ccc(NCc3c(Cl)ccc(Cl)c3Cl)cc2)no1 [Example 95, carbamic acid 3-[4-(2,3,6-trichloro-benzylamino)-phenyl]-isoxazol-5-ylmethyl ester] | 24.3
NC(=O)OCc1cc(-c2ccc(NCc3cccc(C(F)(F)F)c3)cc2)no1 [Example 96, Carbamic acid 3-[4-(3-trifluoromethyl-benzylamino)-phenyl]-isoxazol-5-ylmethyl ester] | 40.9
Cc1ccccc1CNc1ccc(-c2cc(COC(N)=O)on2)cc1 [Example 99, Carbamic acid 3-[4-(2-methyl-benzylamino)-phenyl]-isoxazol-5-ylmethyl ester] | 79.7
Cc1ccc(CNc2ccc(-c3cc(COC(N)=O)on3)cc2)cc1 [Example 100, Carbamic acid 3-[4-(4-methyl-benzylamino)-phenyl]-isoxazol-5-ylmethyl ester] | 23.7
Cc1ccc(CNc2ccc(-c3cc(COC(N)=O)on3)cc2)c(C)c1 [Example 103, Carbamic acid 3-[4-(2,4-dimethyl-benzylamino)-phenyl]-isoxazol-5-ylmethyl ester] | 20.7
COc1cccc(CNc2ccc(-c3cc(COC(N)=O)on3)cc2)c1 [Example 105, Carbamic acid 3-[4-(3-methoxy-benzylamino)-phenyl]-isoxazol-5-ylmethyl ester] | 53.7
Cc1noc(C)c1CNc1ccc(-c2cc(COC(N)=O)on2)cc1 [Example 112, carbamic acid 3-{4-[(3,5-dimethyl-isoxazol-4-ylmethyl)-amino]-phenyl}-isoxazol-5-ylmethyl ester] | 26
Fc1ccc(COc2ccc(-c3cc(Cn4ccnc4)on3)cc2)c(F)c1 [Example 154, 3-[4-(2,4-difluoro-benzyloxy)-phenyl]-5-imidazol-1-ylmethyl-isoxazole] | 82.7
Fc1cc(F)c(COc2ccc(-c3cc(Cn4ccnc4)on3)cc2)c(F)c1 [Example 155, 5-imidazol-1-ylmethyl-3-[4-(2,4,6-trifluoro-benzyloxy)-phenyl]-isoxazole] | 70.7
Fc1ccc(COc2ccc(-c3cc(Cn4ccnc4)on3)cc2)cc1 [Example 156, 3-[4-(4-fluoro-benzyloxy)-phenyl]-5-imidazol-1-ylmethyl-isoxazole] | 74.5
Clc1ccc(COc2ccc(-c3cc(Cn4ccnc4)on3)cc2)cc1 [Example 157, 3-[4-(4-chloro-benzyloxy)-phenyl]-5-imidazol-1-ylmethyl-isoxazole] | 37.2
CC(C)c1nccn1Cc1cc(-c2ccc(OCc3ccccc3)cc2)no1 [Example 179, 3-(4-benzyloxy-phenyl)-5-(2-isopropyl-imidazol-1-ylmethyl)-isoxazole] | 26.7
CCc1nc(C)cn1Cc1cc(-c2ccc(OCc3ccccc3)cc2)no1 [Example 186, 3-(4-benzyloxy-phenyl)-5-(2-ethyl-4-methyl-imidazol-1-ylmethyl)-isoxazole] | 51.2

Further lines, results first:

inhibition at 0.01 µM [%] | Compound
68.5 | CC(OC(N)=O)c1cc(-c2ccc(OCc3ccccc3)cc2)no1 (stereo not drawn) [Example 117, carbamic acid 1-[3-(4-benzyloxy-phenyl)-isoxazol-5-yl]-ethyl ester]
25.7 | NC(=O)OCCc1cc(-c2ccc(OCc3ccccc3)cc2)no1 [Example 118, carbamic acid 2-[3-(4-benzyloxy-phenyl)-isoxazol-5-yl]-ethyl ester]
81.7 | C#CCNCc1cc(-c2ccc(OCc3ccccc3)cc2)no1 [Example 119, [3-(4-benzyloxy-phenyl)-isoxazol-5-ylmethyl]-prop-2-ynyl-amine]
65.8 | O=C(OCc1cc(-c2ccc(OCc3ccccc3)cc2)no1)N1CCCC1 [Example 125, pyrrolidine-1-carboxylic acid 3-(4-benzyloxy-phenyl)-isoxazol-5-ylmethyl ester]
48.7 | O=C(OCc1cc(-c2ccc(OCc3ccccc3)cc2)no1)N1CCCCC1 [Example 126, piperidine-1-carboxylic acid 3-(4-benzyloxy-phenyl)-isoxazol-5-ylmethyl ester]
22 | CN(C)NC(=O)OCc1cc(-c2ccc(OCc3ccccc3)cc2)no1 [Example 129, N′,N′-dimethyl-hydrazinecarboxylic acid 3-(4-benzyloxy-phenyl)-isoxazol-5-ylmethyl ester]
43.5 | OC1CCN(Cc2cc(-c3ccc(OCc4ccccc4)cc3)no2)CC1 [Example 137, 1-[3-(4-benzyloxy-phenyl)-isoxazol-5-ylmethyl]-piperidin-4-ol]
39.1 | NC(=O)OC1CCN(Cc2cc(-c3ccc(OCc4ccccc4)cc3)no2)CC1 [Example 138, Carbamic acid 1-[3-(4-benzyloxy-phenyl)-isoxazol-5-ylmethyl]-piperidin-4-yl ester]
84.6 | c1ccc(COc2ccc(-c3cc(Cn4ccnc4)on3)cc2)cc1 [Example 139, 3-(4-benzyloxy-phenyl)-5-imidazol-1-ylmethyl-isoxazole]
91.7 | Cc1nccn1Cc1cc(-c2ccc(OCc3ccccc3)cc2)no1 [Example 140, 3-(4-benzyloxy-phenyl)-5-(2-methyl-imidazol-1-ylmethyl)-isoxazole]
97.3 | c1ccc(COc2ccc(-c3cc(Cn4cncn4)on3)cc2)cc1 [Example 144, 1-[3-(4-benzyloxy-phenyl)-isoxazol-5-ylmethyl]-1H-[1,2,4]triazole]
39.2 | c1ccc(COc2ccc(-c3cc(Cn4ccnn4)on3)cc2)cc1 [Example 145, 1-[3-(4-benzyloxy-phenyl)-isoxazol-5-ylmethyl]-1H-[1,2,3]triazole]
86 | c1ccc(COc2ccc(-c3cc(Cn4ncnn4)on3)cc2)cc1 [Example 146, 2-[3-(4-benzyloxy-phenyl)-isoxazol-5-ylmethyl]-2H-tetrazole]
97.4 | CN(C)Cc1cc(-c2ccc(OCc3ccccc3)cc2)no1 [Example 150, [3-(4-benzyloxy-phenyl)-isoxazol-5-ylmethyl]-dimethyl-amine]
96.8 | CCN(CC)Cc1cc(-c2ccc(OCc3ccccc3)cc2)no1 [Example 151, [3-(4-benzyloxy-phenyl)-isoxazol-5-ylmethyl]-diethyl-amine]
21.8 | NC(=O)C(CO)NCc1cc(-c2ccc(OCc3ccccc3)cc2)no1 (stereo not drawn) [Example 167, 2-{[3-(4-benzyloxy-phenyl)-isoxazol-5-ylmethyl]-amino}-3-hydroxy-propionamide]
44.7 | OCCNCc1cc(-c2ccc(OCc3ccccc3)cc2)no1 [Example 168, 2-{[3-(4-benzyloxy-phenyl)-isoxazol-5-ylmethyl]-amino}-ethanol]
52.7 | COCCNCc1cc(-c2ccc(OCc3ccccc3)cc2)no1 [Example 174, [3-(4-benzyloxy-phenyl)-isoxazol-5-ylmethyl]-(2-methoxy-ethyl)-amine]
71.5 | C=CCNCc1cc(-c2ccc(OCc3ccccc3)cc2)no1 [Example 176, Allyl-[3-(4-benzyloxy-phenyl)-isoxazol-5-ylmethyl]-amine]
31.7 | NC(=O)OCCNCc1cc(-c2ccc(OCc3ccccc3)cc2)no1 [Example 177, Carbamic acid 2-{[3-(4-benzyloxy-phenyl)-isoxazol-5-ylmethyl]-amino}-ethyl ester]
64 | C#CCN(C)Cc1cc(-c2ccc(OCc3ccccc3)cc2)no1 [Example 178, [3-(4-benzyloxy-phenyl)-isoxazol-5-ylmethyl]-methyl-prop-2-ynyl-amine]

same assay, conditions: treatment concentration 100 nM

inhibition at 0.1 µM [%] | Compound
97.1 | NC(=O)OCc1cc(-c2ccc(OCc3ccc(F)cc3F)cc2)no1 [Example 196, carbamic acid 3-[4-(2,4-difluoro-benzyloxy)-phenyl]-isoxazol-5-ylmethyl ester]
96.7 | NC(=O)OCc1cc(-c2ccc(OCc3cc(F)ccc3F)cc2)no1 [Example 197, carbamic acid 3-[4-(2,5-difluoro-benzyloxy)-phenyl]-isoxazol-5-ylmethyl ester]
95.7 | NC(=O)OCc1cc(-c2ccc(OCc3ccc(Cl)cc3Cl)cc2)no1 [Example 198, carbamic acid 3-[4-(2,4-dichlorobenzyloxy)-phenyl]-isoxazol-5-ylmethyl ester]
